Test results: US20260285875A1, “INHIBITORS OF PARG” (858 Therapeutics, Inc., priority 2023, published 2026)

Molecular target: T1, cellular PARG (Homo sapiens, UniProt Q86W56)
T1 construct: endogenous in cells; host or cells: HeLa
Assay: Nuclear PAR accumulation assay (immunofluorescence high-content imaging, MMS-treated HeLa cells)
Assay type: cell-based
Conditions: 1 hour compound then MMS 50 μg/mL for an additional hour
In short: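 HeLa cells pretreated with compound for 1 h at 37° C, then given 50 μg/mL MMS for another hour. After methanol fixation, PAR was immunostained with DAPI nuclear counterstain; per-nucleus intensity and percent PAR-positive cells were imaged at 20× (≥1,000 cells/well). IC50 from four-parameter logistic fit.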

T1 sequence (Q86W56 whole entry): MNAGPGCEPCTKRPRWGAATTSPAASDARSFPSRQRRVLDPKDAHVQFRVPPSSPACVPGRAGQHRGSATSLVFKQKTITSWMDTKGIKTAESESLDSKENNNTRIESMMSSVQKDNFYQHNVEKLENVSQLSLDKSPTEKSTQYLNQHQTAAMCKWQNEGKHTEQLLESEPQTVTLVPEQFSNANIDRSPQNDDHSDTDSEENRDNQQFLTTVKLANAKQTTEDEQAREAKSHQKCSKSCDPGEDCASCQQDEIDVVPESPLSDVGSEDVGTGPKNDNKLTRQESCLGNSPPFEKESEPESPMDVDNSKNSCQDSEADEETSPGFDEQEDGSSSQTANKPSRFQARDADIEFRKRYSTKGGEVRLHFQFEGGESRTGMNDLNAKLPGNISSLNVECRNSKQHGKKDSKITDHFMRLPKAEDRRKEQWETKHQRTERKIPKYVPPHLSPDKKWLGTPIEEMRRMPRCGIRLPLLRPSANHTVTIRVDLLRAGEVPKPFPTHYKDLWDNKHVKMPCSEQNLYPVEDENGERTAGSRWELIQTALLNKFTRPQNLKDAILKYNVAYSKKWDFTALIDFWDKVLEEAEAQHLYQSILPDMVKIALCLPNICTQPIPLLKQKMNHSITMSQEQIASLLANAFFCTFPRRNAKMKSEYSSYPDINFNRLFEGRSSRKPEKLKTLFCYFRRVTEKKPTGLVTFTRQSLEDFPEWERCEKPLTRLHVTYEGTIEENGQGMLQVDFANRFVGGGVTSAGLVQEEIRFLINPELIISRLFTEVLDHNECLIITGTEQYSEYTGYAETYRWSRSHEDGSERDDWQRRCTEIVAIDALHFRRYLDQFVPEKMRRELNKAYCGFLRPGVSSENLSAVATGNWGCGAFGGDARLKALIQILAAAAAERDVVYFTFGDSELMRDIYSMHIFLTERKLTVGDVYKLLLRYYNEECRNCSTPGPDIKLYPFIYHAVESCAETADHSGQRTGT

Compound | IC50 [nM]
CC#C[C@@H]1CN=C2N(C)C(=O)c3cc(S(=O)(=O)NC4(C)CC4)cc(Br)c3N21 [Example 42, (R)-9-bromo-4-methyl-N-(1-methylcyclopropyl)-5-oxo-1-(prop-1-yn-1-yl)-1,2,4,5-tetrahydroimidazo[1,2-a]quinazoline-7-sulfonamide] | < 100
Cn1cc(CN2C(=O)c3cc(S(=O)(=O)NC4(C)CC4)ccc3N3C2=NC[C@H]3C2CCC(F)(F)CC2)cn1 [Example 45, (R)-1-(4,4-difluorocyclohexyl)-4-((1-methyl-1H-pyrazol-4-yl)methyl)-N-(1-methylcyclopropyl)-5-oxo-1,2,4,5-tetrahydroimidazo[1,2-a]quinazoline-7-sulfonamide] | < 100
CN1C(=O)c2cc(S(=O)(=O)NC3(C)CC3)cc(C3=CCN(C(=O)C4CC4)CC3)c2N2CC(C)(C)N=C12 [Example 59, 9-(1-(cyclopropanecarbonyl)-1,2,3,6-tetrahydropyridin-4-yl)-2,2,4-trimethyl-N-(1-methylcyclopropyl)-5-oxo-1,2,4,5-tetrahydroimidazo[1,2-a]quinazoline-7-sulfonamide] | 100 to 1000
Cn1cc(CN2C(=O)c3cc(S(=O)(=O)NC4(C)CC4)ccc3N3C2=NC[C@H]3C#Cc2cnccn2)cn1 [Example 77, (R)-4-((1-methyl-1H-pyrazol-4-yl)methyl)-N-(1-methylcyclopropyl)-5-oxo-1-(pyrazin-2-ylethynyl)-1,2,4,5-tetrahydroimidazo[1,2-a]quinazoline-7-sulfonamide] | < 100

The next lines start with the values.

IC50 [nM] | Compound
100 to 1000 | Cc1nnc(N2C3=NC[C@@H](C)N3c3ccc(S(=O)(=O)NC4(C)CC4)cc32)s1 [Example 84, (R)-3-methyl-9-(5-methyl-1,3,4-thiadiazol-2-yl)-N-(1-methylcyclopropyl)-2,9-dihydro-3H-benzo[d]imidazo[1,2-a]imidazole-7-sulfonamide]
100 to 1000 | C#C[C@@H]1CN=C2N(Cc3cnn(C)c3)C(=O)c3cc(S(=O)(=O)NC4(C)CC4)cc(C4=CCNCC4)c3N21 [Example 79, (R)-1-ethynyl-4-((1-methyl-1H-pyrazol-4-yl)methyl)-N-(1-methylcyclopropyl)-5-oxo-9-(1,2,3,6-tetrahydropyridin-4-yl)-1,2,4,5-tetrahydroimidazo[1,2-a]quinazoline-7-sulfonamide]
< 100 | Cc1nn(C)cc1C#C[C@@H]1CN=C2N(CC3CC3)C(=O)c3cc(S(=O)(=O)NC4(C)CC4)ccc3N21 [Example 277, (R)-4-(cyclopropylmethyl)-1-((1,3-dimethyl-1H-pyrazol-4-yl)ethynyl)-N-(1-methylcyclopropyl)-5-oxo-1,2,4,5-tetrahydroimidazo[1,2-a]quinazoline-7-sulfonamide]
100 to 1000 | CN1C(=O)c2cc(S(=O)(=O)NC3(C)CC3)ccc2N2C1=NCC2C#Cc1ccc2nccn2n1 (stereo not shown) [Example 176, 1-(imidazo[1,2-b]pyridazin-6-ylethynyl)-4-methyl-N-(1-methylcyclopropyl)-5-oxo-1,2,4,5-tetrahydroimidazo[1,2-a]quinazoline-7-sulfonamide]
< 100 | CN(C)C1(C#C[C@@H]2CN=C3N(CC4(F)CC4)C(=O)c4cc(S(=O)(=O)NC5(C)CC5)ccc4N32)CC1 [Example 152, (R)-1-((1-(dimethylamino)cyclopropyl)ethynyl)-4-((1-fluorocyclopropyl)methyl)-N-(1-methylcyclopropyl)-5-oxo-1,2,4,5-tetrahydroimidazo[1,2-a]quinazoline-7-sulfonamide]
< 100 | [2H]C([2H])(c1cnn(C)c1)N1C(=O)c2cc(S(=O)(=O)NC3(C)CC3)ccc2N2C1=NC[C@H]2C#Cc1ccc(N(C)C)nc1 [Example 280, (R)-1-((6-(dimethylamino)pyridin-3-yl)ethynyl)-4-((1-methyl-1H-pyrazol-4-yl)methyl-d2)-N-(1-methylcyclopropyl)-5-oxo-1,2,4,5-tetrahydroimidazo[1,2-a]quinazoline-7-sulfonamide]
